Patent US7109193B2, “Tricyclic diazepines tocolytic oxytocin receptor antagonists” (Wyeth, priority 2001, dated 2006)

Molecular target: T1, human vasopressin V2 receptor subtype (Homo sapiens, UniProt P30518)
T1 construct: host or cells: CHO cells (pZeoSV vector)
Test: Vasopressin binding in Chinese Hamster Ovary cell membranes expressing human vasopressin V2 subtype receptors
Conditions: 100 nM, CHO cell membranes, [3H]arginine vasopressin, values without parentheses
Method: Vasopressin Binding in Chinese Hamster Ovary Cell Membranes Expressing Human Vasopressin V2 Subtype Receptors
Chinese Hamster Ovary (CHO) cells stably transfected with the human V2 subtype receptors were obtained from M. Thibonnier, Case Western Reserve University School of Medicine, Cleveland, Ohio.
A. Passaging and Amplification of Cells:
The trypsin is removed by aspiration and the cells dislodged by tapping. Cell Culture medium (e.g. 30 mL for 1:30 split) is immediately added and mixed well to inactivate trypsin. 1 mL of detached cells is added to new culture flasks containing fresh Cell Culture medium (e.g. into 25 mL per T-150 flask), and mixed gently. The cells are incubated at 37° C. in 5% CO2. The medium is changed at 3 to 4 day interval (or as appropriate). […] All steps are done under sterile conditions. B. Membrane Preparation: The cells are washed twice gently with Hank's Balanced Salt solution (e.g. use 10 mL per T-150 flask). […] The contents are transferred to centrifuge tubes (50 mL) kept in ice bath. All subsequent steps are done at 4° C. The tubes are centrifuged at 300×g for 15 min (1380 rpm on SORVAL, Model RT6000D, using the rotor for 50 mL tubes). The supernatant is discarded and the cells suspended in homogenizing buffer (10 mM Tris-HCl containing 0.25 M sucrose and 1 mM EDTA, pH 7.4) ensuring that the volume of the buffer is about ten times the volume of the cell pellet. The cells are pooled into a centrifuge tube (50 mL) and homogenized with a Polytron at setting 6 for 10 sec. The homogenate is transferred into a Potter-Elvjehm homogenizer and homogenized with 3 strokes. The homogenate is centrifuged at 1500×g for 60 min at 4° C. (3100 rpm using SORVAL, model RT6000D, using the rotor for 50 mL tubes). The pellet is discarded. The supernatant is centrifuged at 100,000×g for 60 min. at 4° C. (Beckman L8-80M ultracentrifuge; spin at 37,500 rpm with rotor type 70 Ti for 50 mL tubes; 38,000 rpm with type 80Ti for 15 mL tubes; or 35,800 rpm with rotor type 45Ti). The supernantant is discarded and the pellet suspended in 3 to 4 mL of Tris buffer (50 mM TRIS-HCl, pH 7.4). The protein content is estimated by the Bradford or Lowry method. The volume of the membrane suspension is adjusted with the membrane buffer (50 mM Tris-HCl containing 0.1% BSA and 0.1 mM PMSF) to give 3.0 mg/mL (or as appropriate) of protein. The membranes are aliquoted and stored at −70° C. C. Radioligand Binding Assay: In wells of a 96-well format microtiter plate, is added 90, 110 or 130 μL (to make up a final volume of 200 μL) of assay buffer containing 50 mM of Tris-HCl (pH 7.4), […], 1 mg % aprotinin, 1 mg % leupeptin, 2 mg % 1,10-phenanthroline, 10 mg % trypsin inhibitor, and 0.1 mM PMSF. The inhibitors are added on the day of the experiment. The components are mixed at room temperature, and then kept in ice bath following adjustment of the pH to 7.4. […] For vasopressin and other peptide ligands 20 μL of 50% DMSO is added and the assay buffer volume is adjusted accordingly. To each well is added 50 μL of frozen membrane suspension thawed immediately prior to use and diluted in assay buffer to the required concentration (equivalent to 25 to 50 μg of protein/well as needed). 20 μL of 8 nM [^3H]arginine vasopressin ligand in the assay buffer, prepared just before use is added and incubated at room temperature for 60 min. shaking the plate on a mechanical shaker for the first 15 min. The incubation is stopped by rapid filtration of the plate contents followed by wash with ice-cold buffer (50 mM Tris-HCl, pH 7.4) using a cell harvester (Tomtek and Printed filtermat-B filter paper). The filter paper is thoroughly dried (7–12 min. in a microwave oven) and impregnated with MeltiLex B/H melt-on scintillation wax sheets and the radioactivity counted in a betaplate scintillation counter.

T1 sequence (P30518 whole entry): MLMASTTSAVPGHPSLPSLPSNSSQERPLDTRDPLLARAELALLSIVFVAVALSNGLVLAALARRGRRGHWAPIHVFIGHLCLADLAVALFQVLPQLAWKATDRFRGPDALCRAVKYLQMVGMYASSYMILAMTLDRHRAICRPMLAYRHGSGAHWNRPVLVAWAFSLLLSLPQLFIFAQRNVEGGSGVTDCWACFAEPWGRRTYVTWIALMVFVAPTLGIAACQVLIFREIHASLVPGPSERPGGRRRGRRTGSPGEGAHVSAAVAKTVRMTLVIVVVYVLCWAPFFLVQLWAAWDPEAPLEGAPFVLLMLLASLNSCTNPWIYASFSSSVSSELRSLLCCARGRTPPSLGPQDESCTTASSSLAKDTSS

| inhibition at 0.1 µM | SMILES | V2 % inhibition @ 100 nM |
| --- | --- | --- |
| – | COc1cc(C(=O)N2Cc3ccc(C(=O)N4CC[C@@H](N(C)C)C4)n3Cc3ccccc32)ccc1-c1cccc2ccccc12 [Example 276, [(3R)-3-(Dimethylamino)pyrrolidinyl]{10-[3-methoxy-4-(1-naphthyl)benzoyl]-10,11-dihydro-5H-pyrrolo[2,1-c][1,4]benzodiazepin-3-yl}methanone] | −3% |
| 8% | COc1cccc(-c2ccc(C(=O)N3Cc4ccc(C(=O)N(C)CCCN(C)C)n4Cc4ccccc43)cc2OC)c1 [Example 108, 10-[(2,3′-Dimethoxy[1,1′-biphenyl]-4-yl)carbonyl]-N-[3-(dimethylamino)propyl]-N-methyl-10,11-dihydro-5H-pyrrolo[2,1-c][1,4]benzodiazepine-3-carboxamide] | – |
| 20% | O=C(c1ccc2n1Cc1ccccc1N(C(=O)c1ccc(-c3cccc4ccccc34)cc1Cl)C2)N1CCC(N2CCCC2)CC1 [Example 147, {10-[2-Chloro-4-(1-naphthyl)benzoyl]-10,11-dihydro-5H-pyrrolo[2,1-c][1,4]benzodiazepin-3-yl}[4-(1-pyrrolidinyl)-1-piperidinyl]methanone] | – |
| – | COc1ccccc1-c1ccc(C(=O)N2Cc3ccc(C(=O)N4CCC[C@H]4CN4CCCC4)n3Cc3ccccc32)cc1OC [Example 269, {10-[(2,2′-Dimethoxy[1,1′-biphenyl]-4-yl)carbonyl]-10,11-dihydro-5H-pyrrolo[2,1-c][1,4]benzodiazepin-3-yl}[(2S)-2-(1-pyrrolidinylmethyl)pyrrolidinyl]methanone] | −19% |
| 17% | COc1cc(C(=O)N2Cc3ccc(C(=O)NCCCn4ccnc4)n3Cc3ccccc32)ccc1-c1ccccc1C [Example 128, N-[3-(1H-Imidazol-1-yl)propyl]-10-[(2-methoxy-2′-methyl[1,1′-biphenyl]-4-yl)carbonyl]-10,11-dihydro-5H-pyrrolo[2,1-c][1,4]benzodiazepine-3-carboxamide] | – |
| – | COc1cc(C(=O)N2Cc3ccc(C(=O)N(C)CCCN(C)C)n3Cc3ccccc32)ccc1-n1c(C)ccc1C [Example 310, N-[3-(Dimethylamino)propyl]-10-[4-(2,5-dimethyl-i H-pyrrol-1-yl)-3-methoxybenzoyl]-N-methyl-10,11-dihydro-5H-pyrrolo[2,1-c][1,4]benzodiazepine-3-carboxamide] | 12% |
| – | COc1cc(C(=O)N2Cc3ccc(C(=O)N4CCC[C@H]4CN4CCCC4)n3Cc3ccccc32)ccc1-c1ccccc1C [Example 266, {10-[(2-Methoxy-2′-methyl[1,1′-biphenyl]-4-yl)carbonyl]-10,11-dihydro-5H-pyrrolo[2,1-c][1,4]benzodiazepin-3-yl}[(2S)-2-(1-pyrrolidinylmethyl)pyrrolidinyl]methanone] | −17% |
| – | O=C(c1ccc(-c2cccc3ccccc23)cc1Cl)N1Cc2ccc(C(=O)N3CCC[C@H]3CN3CCCC3)n2Cc2ccccc21 [Example 261, {10-[2-Chloro-4-(1-naphthyl)benzoyl]-10,11-dihydro-5H-pyrrolo[2,1-c][1,4]benzodiazepin-3-yl}[(2S)-2-(1-pyrrolidinylmethyl)pyrrolidinyl]methanone] | 18% |
| 18% | Cc1ccccc1-c1ccc(C(=O)N2Cc3ccc(C(=O)NCCN4CCCCC4)n3Cc3ccccc32)cc1C [Example 150, 10-[(2,2′-Dimethyl[1,1′-biphenyl]-4-yl)carbonyl]-N-[2-(1-piperidinyl)ethyl]-10,11-dihydro-5H-pyrrolo[2,1-c][1,4]benzodiazepine-3-carboxamide] | – |
| 9% | Cc1ccccc1-c1ccc(C(=O)N2Cc3ccc(C(=O)N4CCC(N5CCCCC5)CC4)n3Cc3ccccc32)cc1C [Example 113, {10-[(2-Methyl-2′-methyl[1,1′-biphenyl]-4-yl)carbonyl]-10,11-dihydro-5H-pyrrolo[2,1-c][1,4]benzodiazepin-3-yl}[4-(1-piperidinyl)-1-piperidinyl]methanone] | – |
| – | COc1cc2c(cc1OC)N(C(=O)c1ccc(-c3ccccc3C(F)(F)F)c(C)c1)Cc1ccc(C(=O)N(C)CCCN(C)C)n1C2.Cl [Example 13, N-Methyl-[N-(3-dimethylamino)propyl]-7,8-dimethoxy-10-{[2-methyl-2′-(trifluoromethyl)[1,1′-biphenyl]-4-yl]carbonyl}-10,11-dihydro-5H-pyrrolo[2,1-c][1,4]benzodiazepine-3-carboxamide hydrochloride salt] | −4% |
| 16% | O=C(NCCCn1ccnc1)c1ccc2n1Cc1ccccc1N(C(=O)c1ccc(-c3cccc4ccccc34)cc1Cl)C2 [Example 134, 10-[2-Chloro-4-(1-naphthyl)benzoyl]-N-[3-(1H-imidazol-1-yl)propyl]-10,11-dihydro-5H-pyrrolo[2,1-c][1,4]benzodiazepine-3-carboxamide] | – |
| 14% | COc1cccc(-c2cc(OC)c(C(=O)N3Cc4ccc(C(=O)N5CCC(N6CCCCC6)CC5)n4Cc4ccccc43)cc2Cl)c1 [Example 117, {10-[(6-Chloro-3-methoxy-3′-methoxy[1,1′-biphenyl]-4-yl)carbonyl]-10,11-dihydro-5H-pyrrolo[2,1-c][1,4]benzodiazepin-3-yl}[4-(1-piperidinyl)-1-piperidinyl]methanone] | – |
| 8% | Cc1cc(C(=O)N2Cc3ccc(C(=O)N4CCC(N5CCCCC5)CC4)n3Cc3ccccc32)ccc1-c1ccccc1C(F)(F)F [Example 122, {10-[(2-Methyl-2′-(trifluoromethyl) -[1,1′-biphenyl]-4-yl)carbonyl]-10,11-dihydro-5H -pyrrolo[2,1-c][1,4]benzodiazepin-3-yl}[4-(1-piperidinyl)-1-piperidinyl]methanone] | – |
| – | COc1cccc(-c2ccc(C(=O)N3Cc4ccc(C(=O)N5CCC[C@H]5CN5CCCC5)n4Cc4ccccc43)cc2OC)c1 [Example 270, {10-[(2,3′-Dimethoxy[1,1′-biphenyl]-4-yl)carbonyl]-10,11-dihydro-5H-pyrrolo[2,1-c][1,4]benzodiazepin-3-yl}[(2S)-2-(1-pyrrolidinylmethyl)pyrrolidinyl]methanone] | 25% |
| – | COc1ccccc1-c1ccc(C(=O)N2Cc3ccc(C(=O)N4CCC(N5CCCC5)CC4)n3Cc3ccccc32)cc1OC [Example 145, {10-[(2,2′-Dimethoxy[1,1′-biphenyl]4-yl)carbonyl]-10,11-dihydro-5H-pyrrolo[2,1-c][1,4]benzodiazepin-3-yl}[4-(1-pyrrolidinyl)-l-piperidinyl]methanone] | −5% |
| – | Cc1ccccc1-c1ccc(C(=O)N2Cc3ccc(C(=O)N4CCC[C@H]4CN4CCCC4)n3Cc3ccccc32)cc1C [Example 260, {10-[(2,2′-Dimethyl[1,1′-biphenyl]-4-yl)carbonyl]-10,11-dihydro-5H-pyrrolo[2,1-c][1,4]benzodiazepin-3-yl}[(2S)-2-(1-pyrrolidinylmethyl)pyrrolidinyl]methanone] | 20% |
| 9% | COc1cc(C(=O)N2Cc3ccc(C(=O)NCCN4CCCCC4)n3Cc3ccccc32)ccc1-c1ccccc1C [Example 154, 10-[(2-Methoxy-2′-methyl[1,1′-biphenyl]4-yl)carbonyl]-N-[2-(1-piperidinyl)ethyl]-10,11-dihydro-5H-pyrrolo[2,1-c][1,4]benzodiazepine-3-carboxamide] | – |
| – | O=C(c1ccc2n1Cc1ccccc1N(C(=O)c1ccc(-c3cccc4ccccc34)cc1Cl)C2)N1CCC(N2CCCCC2)CC1 [Example 121] | 13% |
